What all share (assay): NCI anticancer screen, dose series, 48 h
The test system of test [1] is U251 CNS.
The test system of test [2] is ACHN renal.
The subject of test [3] is OVCAR-5 ovarian.
For test [4], the system named is HS 578T breast.
Test [5] relates to SF-539 CNS.
The test system of test [6] is NCI/ADR-RES ovarian.
The subject of test [7] is SNB-19 CNS.
Test [8] concerns UACC-62 melanoma.
The test system of test [9] is COLO 205 colon.
Test [10] has as its system CAKI-1 renal.

Each structure is given as a SMILES string.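 These data come from cells grown in 96-well plates and exposed to compound for 48 hours at five concentrations. Abbreviation: GI50, concentration required for 50% inhibition of growth. TGI: concentration producing complete growth inhibition.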 Where only a bound is given, the exact number is not on record here.

Turning to `CC1=CC2C(C(C)C)CC1C1C(=O)OC(=O)C21` (configuration not stated), the TGI in [1], in test [2], in test [3], in [4], in [5] and in [6] was over 100 µM in each case. The TGI in test [7], in test [8] and in [9] was over 100 µM each time.

As to `CC(C)[C@@H]1CC[C@@H]2[C@@H]1[C@H](OC(=O)/C=C/c1ccccc1)[C@]1(C(C)C)C[C@@H](OC(=O)CO)[C@@]2(C)O1`, the GI50 in [1] was 5.54 µM; in test [2] it was 0.00824 µM; in test [3] it was 5.15 µM; in [4], 0.00325 µM; in test [5], 5.25 µM; in test [6], 0.0795 µM. Besides, the GI50 in [7] is 5.37 µM; in test [8], 4.94 µM; in test [10], 0.133 µM; in [9], 6.12 µM. For the same molecule, the TGI in [1] was 10.6 µM; in test [2] it was 4.25 µM; in test [3], 10.2 µM; in test [4], 0.0136 µM; in test [5] it was 10.2 µM; in test [6], 5 µM. In addition, the TGI turned out to be 10.8 µM in test [7], 9.97 µM in test [8], 6.73 µM in [10] and 12.8 µM in test [9].

For the molecule `CCCCCCCCCC(CCCC(O)CC(=O)O)OC1OC(COC2OC(C)C(O)C(O)C2O)C(O)C(O)C1OC1OC(CO)C(O)C(O)C1OC1OC(C)C(O)C(O)C1O` (configuration not stated), the GI50 in [1], in test [2], in [3], in [4], in test [5] and in test [6] was over 40 µM throughout. The GI50 in [7], in test [8], in [10] and in test [9] was over 40 µM throughout. In addition, the TGI in test [1], in test [2], in test [3], in [4], in [5] and in [6] was over 40 µM in each case. The TGI in test [7], in [8], in test [10] and in [9] was over 40 µM each time.

For `COc1cc(NC(N)=NCCC(C)(C)c2ccc(C(F)(F)F)cc2)ncc1C#N`, the GI50 is 1.67 µM in [1]; 1.65 µM in test [2]; 1.97 µM in [3]; 2.14 µM in [4]; 1.87 µM in [5]; 1.8 µM in test [6]. The GI50 in test [7] was 1.79 µM; in test [8] it was 1.71 µM; in test [10] it was 1.42 µM; in test [9], 1.65 µM. Also, the TGI in [1] came out at 3.05 µM; in test [2], 3.01 µM; in [3], 3.76 µM; in test [4], 4.55 µM; in [5], 3.33 µM; in test [6] it was 3.29 µM. Also, the TGI in [7] was determined as 3.44 µM; in [8], 3.1 µM; in [10] it was 2.74 µM; in [9], 3.21 µM.

As to `O=C(Nc1ccc(Br)cc1F)c1cc(Br)ccc1O`, the GI50 is 0.64 µM in test [1]; 0.848 µM in test [2]; 2.97 µM in test [3]; 0.467 µM in [4]; 0.552 µM in [5]; 0.876 µM in test [6]. In addition, the GI50 in test [7] was 0.502 µM; in test [8] it was 0.303 µM; in test [10], 0.456 µM; in test [9], 2.95 µM. Also, the TGI was determined as 13.3 µM in test [1]; 9.18 µM in test [2]; 33.3 µM in test [3]; 5.66 µM in test [4]; 4.64 µM in test [5]; 5.44 µM in test [6]. Further, the TGI in test [7] was found to be 27.9 µM; in test [8] it was 1.23 µM; in [10], 4.11 µM; in [9] it was 9.11 µM.

On to `N=c1ccn2c(n1)O[C@@H]1[C@@H](O)[C@H](CO)O[C@@H]12`, for which the GI50 in test [1] is 6.89 µM; in [2], 1.45 µM; in test [3], 49.3 µM; in test [4], over 100 µM; in test [5] it was 63.9 µM; in test [6], 2.08 µM. The values for the GI50 in [7], in test [8] and in test [9] were 1.44 µM, 4.93 µM and 2.41 µM, respectively. Further, the TGI in test [1], in [2], in test [3], in [4], in test [5] and in test [6] was over 100 µM each time. Further, the TGI in [7], in test [8], in test [10] and in [9] was over 100 µM throughout.

Take `O=C1c2cccnc2C(=O)c2c1c(C(=O)OCCN1CCOCC1)c1ccccn21`: the GI50 is under 0.0104 µM in [1]; under 0.01 µM in test [2]; 0.276 µM in test [3]; 0.0243 µM in [4]; under 0.01 µM in [5]; under 0.01 µM in [6]. Also, the GI50 in test [7] was under 0.01 µM; in [8], under 0.01 µM; in test [10], under 0.0184 µM; in [9], 0.137 µM. In addition, the TGI in test [1] was 0.767 µM; in test [2], 11.5 µM; in test [3], 1.65 µM; in test [4], 10.8 µM; in test [5], under 0.0212 µM; in test [6], 13 µM. In addition, the TGI in test [7] came to 3.15 µM; in test [8], 0.11 µM; in test [10] it was 14.6 µM; in test [9], 0.69 µM.

As to `O=C(CCl)Nc1ccc2c(c1)C(=O)c1ccc(NC(=O)CCl)cc1C2=O`, the GI50 in test [3] is 0.371 µM; in test [4], 1.29 µM; in [5], 0.301 µM; in test [6], 0.352 µM; in [7] it was 0.547 µM; in test [8] it was 0.299 µM. Besides, the GI50 in [10] is 0.683 µM. In addition, the TGI came out at 1.63 µM in test [3]; 9.57 µM in test [4]; 0.866 µM in test [5]; 1.78 µM in test [6]; 2.98 µM in test [7]; 0.99 µM in test [8]. Besides, the TGI in [10] stood at 1.98 µM.

As to `CN1CCCCC1CCN1c2ccccc2Sc2ccc(S(C)=O)cc21` (configuration not stated), the TGI in test [1], in [2], in test [3], in [4], in [5] and in test [6] was over 100 µM each time. Further, the TGI in test [7], in test [8], in test [10] and in test [9] was over 100 µM each time.

Turning to `O=CC1(C2(C=O)c3ccccc3-c3ccccc32)c2ccccc2-c2ccccc21`, the GI50 in test [1] is 2.23 µM; in test [2], 1.83 µM; in test [3] it was 3.21 µM; in [4] it was 2.7 µM; in [5], 2.01 µM; in test [6], 2.54 µM. Also, the GI50 in test [8] is 2.69 µM; in test [10], 1.27 µM. In addition, the TGI was determined as 5.6 µM in test [1]; 4.19 µM in test [2]; 6.34 µM in test [3]; 7.49 µM in test [4]; 4.37 µM in [5]; 6.99 µM in test [6]. In addition, the TGI amounted to 6.25 µM in test [8] and 3.62 µM in test [10].

For the molecule `O=C1c2ccccc2C(=O)c2c1ccc1c2OCO1`, the TGI in test [1], in test [3], in test [4], in [5], in test [6] and in [7] was over 100 µM throughout. Also, the TGI in test [8], in test [10] and in test [9] was over 100 µM in each case.

On to `COc1cc2c3c(n(CCCCl)c(=O)c2cc1OC)-c1ccc(C#N)cc1C3=O`, for which the GI50 is 0.446 µM in [1]; 33.6 µM in test [3]; 3.32 µM in [4]; 7.18 µM in test [5]; 22.4 µM in [6]; 22.1 µM in [7]. Moreover, the GI50 in test [8] is 6.81 µM; in [10], 10.6 µM; in [9], 43.3 µM. Further, the TGI in test [1] is 2.83 µM; in test [3], over 100 µM; in test [4], 21.9 µM; in test [5], 28.2 µM; in test [6] it was over 100 µM; in [7] it was over 100 µM. The TGI in test [8] is 22.5 µM; in test [10], 30.9 µM; in [9], over 100 µM.

Regarding `CNC1C(OC2C(OC3C(O)C(O)C(O)C(O)C3O)OC(C)C2(O)CO)OC(CO)C(O)C1O` (configuration not stated) (tested in a mixture with another compound), the TGI in test [1], in test [2], in test [3], in test [4], in test [5] and in [6] was over 100 µM in each case. Moreover, the TGI in [7], in test [8] and in test [9] was over 100 µM in each case.

Turning to `O=[N+]([O-])c1ccc(-c2cn(-c3ccc(Cl)cc3)cn2)cc1`, the TGI in [1], in [2], in [3], in [4], in test [6] and in [7] was over 100 µM each time. Besides, the TGI in [8], in test [10] and in test [9] was over 100 µM each time.

As to `O=C1C(Cl)=C(Nc2cccc(O)c2)C(=O)N1c1cccc(Cl)c1Cl`, the GI50 in [1] is 12.4 µM; in [2] it was 19.1 µM; in test [3], 22.4 µM; in [4] it was 1.71 µM; in test [6], 18.9 µM; in test [7] it was 19.1 µM. For the same molecule, the GI50 in test [8] was 14.6 µM; in [10], 3.14 µM; in [9] it was 15.3 µM. In addition, the TGI in [1] is 30.8 µM; in test [2], over 100 µM; in test [3] it was 57.7 µM; in test [4], 14.4 µM; in test [6], 46 µM; in test [7], 82.9 µM. The results for the TGI in test [8], in test [10] and in test [9] were 34 µM, 20.2 µM and 38.9 µM, respectively.

On to `Cc1ccc(NC(=O)c2nc(S(C)=O)oc2-c2ccc(F)cc2)cc1Nc1nccc(-c2cccnc2)n1` (configuration not stated), for which the GI50 in [1] is 1.98 µM; in [2] it was 1.69 µM; in test [3], 4.46 µM; in [4] it was 2.96 µM; in test [5] it was 1.77 µM; in test [6], 3.07 µM. Moreover, the GI50 is 2.15 µM in [7], 1.8 µM in test [8] and 2.03 µM in [9]. Also, the TGI in test [1] was determined as 3.57 µM; in [2], 3.1 µM; in test [3] it was 30.1 µM; in test [4], 8.94 µM; in [5], 3.71 µM; in test [6], 11.9 µM. Moreover, the TGI in test [7] was determined as 3.91 µM; in test [8] it was 3.38 µM; in test [9] it was 4.41 µM.

Take `O=C(CN1CCN(c2ccc(Cl)cc2)CC1)N1CCN(c2nnc(-c3ccccc3)c(-c3ccccc3)n2)CC1`: the GI50 in test [1] is 8.02 µM; in test [2], 5.07 µM; in [3], over 100 µM; in test [4] it was 51.6 µM; in test [5], 7.65 µM; in test [6], 5.4 µM. In addition, the GI50 in [7] was over 100 µM; in [10], 4.93 µM; in [9] it was 3.47 µM. The TGI in [1], in test [2], in test [3], in test [4], in test [5] and in test [6] was over 100 µM each time. The TGI in test [7], in test [10] and in test [9] was over 100 µM in each case.

The values are drawn from PubChem BioAssay (NCI).
